Assay results reported in patent US10562909B2, “Fused quadracyclic compounds, compositions and uses thereof” (Tabomedex Biosciences, LLC, priority 2016, dated 2020).

target: MAPKAPK2 (Homo sapiens, UniProt P49137); test: MK2 Enzymatic Assay; assay type: biochemical; settings: 0.5 nM MAPKAPK2, 3 μM ATP, 2 μM Ser/Thr4 peptide, 23° C., values given as concentration bins
How it was run: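 Percent phosphorylation was derived from coumarin and fluorescein emissions relative to 0% and 100% phospho-peptide controls, read after a 120 min development step. Reactions used 2× stocks of 1 nM kinase, 4 μM peptide and 6 μM ATP; enzyme and peptide sat 20 min before a 120 min ATP reaction.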

Sequence of MAPKAPK2 (P49137 whole entry, species assumed): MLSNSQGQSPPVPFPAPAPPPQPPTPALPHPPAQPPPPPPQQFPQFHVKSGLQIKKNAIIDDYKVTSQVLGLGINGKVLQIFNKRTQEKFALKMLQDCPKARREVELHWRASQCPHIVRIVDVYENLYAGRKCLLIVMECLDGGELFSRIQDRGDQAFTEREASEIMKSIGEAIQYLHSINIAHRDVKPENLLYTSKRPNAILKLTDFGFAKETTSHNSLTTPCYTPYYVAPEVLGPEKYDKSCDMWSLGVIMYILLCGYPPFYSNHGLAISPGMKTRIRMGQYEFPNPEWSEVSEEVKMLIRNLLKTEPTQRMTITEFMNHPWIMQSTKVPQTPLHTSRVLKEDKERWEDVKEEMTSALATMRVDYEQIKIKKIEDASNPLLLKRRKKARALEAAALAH

SMILES	IC50 [nM]
CN(C)C[C@H]1CCN(c2ccc3c(c2)Cn2cc(-c4ccc(F)cc4)cc2-c2nnnn2-3)C1 [Compound 394, (R)-1-(1-(12-(4-fluorophenyl)-9H-benzo[e]pyrrolo[1,2-a]tetrazolo[5,1-c][1,4]diazepin-7-yl)pyrrolidin-3-yl)-N,N-dimethylmethanamine]	50 to 100
NC[C@H]1CN(c2ccc3c(c2)Cn2cc(-c4ccc(F)cc4)cc2-c2nccn2-3)C[C@@H]1O [Compound 365, (3R,4S)-4-(aminomethyl)-1-(12-(4-fluorophenyl)-9H-benzo[e]imidazo[2,1-c]pyrrolo[1,2-a] [1,4]diazepin-7-yl)pyrrolidin-3-ol]	50 to 100
CN[C@H]1CCN(c2ccc3c(c2)Cn2c(cc(-c4ccc(C#N)cc4)c2Cl)-c2nncn2-3)C1 [Compound 167, (S)-4-(11-chloro-7-(3-(methylamino)pyrrolidin-1-yl)-9H-benzo[e]pyrrolo[1,2-a][1,2,4]tri-azolo[3,4-c][1,4]diazepin-12-yl)benzonitrile]	50 to 100
OC1CCN(C[C@@H]2CCN(c3ccc4c(c3)Cn3cc(-c5ccc(F)cc5)cc3-c3nccn3-4)C2)CC1 [Compound 361, (S)-1-((1-(12-(4-fluorophenyl)-9H-benzo[e]imidazo[2,1-c]pyrrolo[1,2-a][1,4]diazepin-7-yl)pyrrolidin-3-yl)methyl)piperidin-4-ol]	< 50
CC(C)[C@@H](CO)NC[C@H]1CCN(c2ccc3c(c2)Cn2cc(-c4ccc(F)cc4)cc2-c2nccn2-3)C1 [Compound 359, (S)-2-((((R)-1-(12-(4-fluorophenyl)-9H-benzo[e]imidazo[2,1-c]pyrrolo[1,2-a][1,4]diazepin-7-yl)pyrrolidin-3-yl)methyl)amino)-3-methylbutan-1-ol]	< 50
OC[C@H]1CN(c2ccc3c(c2)Cn2cc(-c4ccc(F)cc4)cc2-c2nccn2-3)C[C@@H]1O [Compound 484, (3R,4R)-1-(12-(4-fluorophenyl)-9H-benzo[e]imidazo[2,1-c]pyrrolo[1,2-a][1,4]diazepin-7-yl)-4-(hydroxymethyl)pyrrolidin-3-ol]	50 to 100
Cc1cc(N2C[C@@H](CN(C)C)[C@H](O)C2)cc2c1-n1ncnc1-c1cc(-c3ccc(F)cc3)cn1C2 [Compound 513, (3S,4R)-4-((dimethylamino)methyl)-1-(12-(4-fluorophenyl)-5-methyl-9H-benzo[e]pyrrolo[1,2-a][1,2,4]triazolo[5,1-c][1,4]diazepin-7-yl)pyrrolidin-3-ol]	100 to 200
OC[C@@H]1CN(c2ccc3c(c2)Cn2cc(-c4ccc(F)cc4)cc2-c2nccn2-3)C[C@H]1O [Compound 485, (3S,4S)-1-(12-(4-fluorophenyl)-9H-benzo[e]imidazo[2,1-c]pyrrolo[1,2-a][1,4]diazepin-7-yl)-4-(hydroxymethyl)pyrrolidin-3-ol]	100 to 200
Cc1nnc2n1-c1ccc(N3CC[C@@H](CN(C)C)C3)cc1Cn1cc(-c3ccc(C#N)cc3)cc1-2 [Compound 228, 4-(7-((S)-3-((dimethylamino)methyl)pyrrolidin-1-yl)-3-methyl-9H-benzo[e]pyrrolo[1,2-a] [1,2,4]triazolo[3,4-c][1,4]diazepin-12-yl)benzonitrile]	50 to 100
CN(C)C[C@H]1CN(c2ccc3c(c2)Cn2cc(-c4ccc(F)cc4)cc2-c2nccn2-3)C[C@@H]1O [Compound 356, (3R,4S)-4-((dimethylamino)methyl)-1-(12-(4-fluorophenyl)-9H-benzo[e]imidazo[2,1-c]pyrrolo[1,2-a][1,4]diazepin-7-yl)pyrrolidin-3-ol]	< 50
CNCC1CCN(c2ccc3c(c2)Cn2cc(-c4ccc(F)cc4)cc2-c2nccn2-3)C1 (stereo not shown) [Compound 342, 1-(1-(12-(4-fluorophenyl)-9H-benzo[e]imidazo[2,1-c]pyrrolo[1,2-a][1,4]diazepin-7-yl)pyrrolidin-3-yl)-N-methylmethanamine]	< 50
CNC[C@@H]1CCN(c2ccc3c(c2)Cn2cc(-c4ccc(F)cc4)cc2-c2nccn2-3)C1 [Compound 347, (S)-1-(1-(12-(4-fluorophenyl)-9H-benzo[e]imidazo[2,1-c]pyrrolo[1,2-a][1,4]diazepin-7-yl)pyrrolidin-3-yl)-N-methylmethanamine]	< 50
CN(C)C[C@H]1CN(c2ccc3c(n2)Cn2cc(-c4ccc(F)cc4)cc2-c2nccn2-3)C[C@@H]1O [Compound 435, (3R,4S)-4-((dimethylamino)methyl)-1-(12-(4-fluorophenyl)-9H-imidazo[2,1-c]pyrido[3,2-e]pyrrolo[1,2-a][1,4]diazepin-7-yl)pyrrolidin-3-ol]	< 50
N#Cc1ccc(-c2cc3n(c2)Cc2cc(N4CC[C@H](CN5CCC(O)CC5)C4)ccc2-n2cnnc2-3)cc1 [Compound 111, (R)-4-(7-(3-((4-hydroxypiperidin-1-yl)methyl)pyrrolidin-1-yl)-9H-benzo[e]pyrrolo[1,2-a] [1,2,4]triazolo[3,4-c][1,4]diazepin-12-yl)benzonitrile]	< 50
CN(C)C[C@@H]1CCN(c2cc3c(cn2)-n2cnnc2-c2cc(-c4ccc(C#N)cc4)cn2C3)C1 [Compound 317, (S)-4-(7-(3-((dimethylamino)methyl)pyrrolidin-1-yl)-9H-pyrido[3,4-e]pyrrolo[1,2-a][1,2,4]triazolo[3,4-c][1,4]diazepin-12-yl)benzonitrile]	100 to 200
C[C@@H]1c2cc(N3C[C@@H](CN(C)C)[C@H](O)C3)ccc2-n2ccnc2-c2cc(-c3ccc(F)cc3)cn21 [Compound 508, (3S,4R)-4-((dimethylamino)methyl)-1-((R)-12-(4-fluorophenyl)-9-methyl-9H-benzo[e]imidazo[2,1-c]pyrrolo[1,2-a][1,4]diazepin-7-yl)pyrrolidin-3-ol]	< 50
CN(C)[C@@H]1CCN(c2ccc3c(c2)Cn2cc(-c4ccc(C#N)cc4)cc2-c2ncc(CN)n2-3)C1 [Compound 277, 4-(3-(aminomethyl)-7-((R)-3-(dimethylamino)pyrrolidin-1-yl)-9H-benzo[e]imidazo[2,1-c]pyrrolo[1,2-a][1,4]diazepin-12-yl)benzonitrile]	50 to 100
CNC[C@@H]1CN(c2ccc3c(c2)Cn2cc(-c4ccc(F)cc4)cc2-c2nccn2-3)C[C@H]1O [Compound 364, (3S,4R)-1-(12-(4-fluorophenyl)-9H-benzo[e]imidazo[2,1-c]pyrrolo[1,2-a][1,4]diazepin-7-yl)-4-((methylamino)methyl)pyrrolidin-3-ol]	< 50
CN(C)[C@@H]1CN(c2ccc3c(c2)Cn2cc(-c4ccc(C#N)cc4)cc2-c2nncn2-3)C[C@H]1O (racemic) [Compound 57, 4-(7-(trans-3-(dimethylamino)-4-hydroxypyrrolidin-1-yl)-9H-benzo[e]pyrrolo[1,2-a][1,2,4]triazolo[3,4-c][1,4]diazepin-12-yl)benzonitrile]	< 50
OC1CCN(C[C@H]2CCN(c3ccc4c(c3)Cn3cc(-c5ccccc5)cc3-c3nncn3-4)C2)CC1 [Compound 459, (R)-1-((1-(12-phenyl-9H-benzo[e]pyrrolo[1,2-a][1,2,4]triazolo[3,4-c][1,4]diazepin-7-yl)pyrrolidin-3-yl)methyl)piperidin-4-ol]	100 to 200
N[C@H]1CN(c2ccc3c(c2)Cn2cc(-c4ccc(F)cc4)cc2-c2nccn2-3)C[C@@H]1CO (relative stereo) [Compound 489, ((trans)-4-amino-1-(12-(4-fluorophenyl)-9H-benzo[e]imidazo[2,1-c]pyrrolo[1,2-a][1,4]diazepin-7-yl)pyrrolidin-3-yl)methanol]	< 50
CN(C)C[C@H]1CN(c2ccc3c(c2)Cn2cc(-c4ccc(F)cc4)cc2-c2ncnn2-3)C[C@H]1F (relative stereo) [Compound 502, 1-(cis-4-fluoro-1-(12-(4-fluorophenyl)-9H-benzo[e]pyrrolo[1,2-a][1,2,4]triazolo[5,1-c][1,4]diazepin-7-yl)pyrrolidin-3-yl)-N,N-dimethylmethanamine]	< 50
N#Cc1ccc(-c2cc3n(c2)Cc2cc(N4CC[C@H](CN5CCC(O)CC5)C4)ccc2-n2ccnc2-3)cc1 [Compound 143, (R)-4-(7-(3-((4-hydroxypiperidin-1-yl)methyl)pyrrolidin-1-yl)-9H-benzo[e]imidazo[2,1-c]pyrrolo[1,2-a][1,4]diazepin-12-yl)benzonitrile]	< 50
CN1CC2(CCN(c3ccc4c(c3)Cn3cc(-c5ccc(C#N)cc5)cc3-c3nccn3-4)C2)C1 [Compound 125, 4-(7-(2-methyl-2,6-diazaspiro[3.4]octan-6-yl)-9H-benzo[e]imidazo[2,1-c]pyrrolo[1,2-a][1,4]diazepin-12-yl)benzonitrile]	< 50
CN1CC2(CCN(c3ccc4c(c3)Cn3cc(-c5ccc(F)cc5)cc3-c3ncnn3-4)C2)C1 [Compound 412, 12-(4-fluorophenyl)-7-(2-methyl-2,6-diazaspiro[3.4]octan-6-yl)-9H-benzo[e]pyrrolo[1,2-a][1,2,4]triazolo[5,1-c][1,4]diazepine]	< 50
CNC[C@H]1CN(c2ccc3c(c2)Cn2cc(-c4ccc(F)cc4)cc2-c2nccn2-3)C[C@H]1O [Compound 482, (3S,4S)-1-(12-(4-fluorophenyl)-9H-benzo[e]imidazo[2,1-c]pyrrolo[1,2-a][1,4]diazepin-7-yl)-4-((methylamino)methyl)pyrrolidin-3-ol]	< 50
CN(C)[C@H]1CN(c2ccc3c(c2)Cn2cc(-c4ccc(C#N)cc4)cc2-c2nccn2-3)C[C@H]1O [Compound 133, 4-(7-((3S,4R)-3-(dimethylamino)-4-hydroxypyrrolidin-1-yl)-9H-benzo[e]imidazo[2,1-c]pyrrolo[1,2-a][1,4]diazepin-12-yl)benzonitrile]	< 50
CNCC[C@H]1CN(c2ccc3c(c2)Cn2cc(-c4ccc(F)cc4)cc2-c2nccn2-3)C[C@@H]1O (relative stereo) [Compound 493, Trans-1-(12-(4-fluorophenyl)-9H-benzo[e]imidazo[2,1-c]pyrrolo[1,2-a][1,4]diazepin-7-yl)-4-(2-(methylamino)ethyl)pyrrolidin-3-ol]	< 50
